Assay [1] has as its system VSVpp (SARS-2-S) entry into TMPRSS2-positive Calu-3 cells.
In assay [2] the target is recombinant thrombin (Homo sapiens, UniProt P00734). Briefly: Chromogenic kinetic enzyme assay of thrombin (S2238). The assay is classed as biochemical. The conditions noted are these: Table 2; chromogenic assay; read-out: Thrombin* (IC50 nM). The protocol: (§1) Using GraphPad Prism (GraphPad Software, San Diego, CA), a four-parameter curve fit was used to determine the inhibitor IC50s from a plot of the mean reaction velocity versus the inhibitor concentration. The IC50 values represent the average of three or more separate experimental determinations. Apparent Ki values were calculated from the IC50 values using the Cheng and Prusoff equation (Ki=IC50/(1+[S]/Km).
(§2) Using GraphPad Prism version 6.04 software program, (GraphPad Software, San Diego, CA, graphpad.com), a four parameter curve fit was used to determine the inhibitor IC50s from a plot of the mean reaction velocity versus the inhibitor concentration.
(§3) Fluorescent inhibitor and chromogenic proteolytic assays were performed for compounds prepared in Example 11 in general accordance with the procedures described in Example 9.

The target of assay [3] is T1, matriptase (Homo sapiens, UniProt Q9Y5Y6).
T1 construct: purchased R&D Systems 3946-SE-010
T1 sequence (Q9Y5Y6 615-855 limits assumed): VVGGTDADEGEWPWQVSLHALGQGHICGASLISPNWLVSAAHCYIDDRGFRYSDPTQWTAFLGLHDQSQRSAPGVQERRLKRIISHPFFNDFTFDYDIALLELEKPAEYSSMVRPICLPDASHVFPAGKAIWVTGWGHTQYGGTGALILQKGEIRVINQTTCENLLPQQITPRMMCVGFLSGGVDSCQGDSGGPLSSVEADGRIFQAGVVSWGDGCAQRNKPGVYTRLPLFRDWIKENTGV
The assay is described as follows: Fluorescent kinetic enzyme assay of matriptase activity (Boc-QAR-AMC). Conditions: Table 2; read-out: Matriptase (IC50 nM). The assay is classed as biochemical.
Experimental: After thirty minutes of incubation at room temperature, Boc-QLR-AMC substrate was added (HGFA assay) or Boc-QAR-AMC substrate (matriptase, and hepsin assays). […] From a plot of the mean reaction velocity versus the inhibitor concentration, a non-linear four parameter curve fit was performed using GraphPad Prism (GraphPad Software, San Diego, CA) to determine inhibitor IC50s. The IC50 values were determined from the average of three or more separate experimental determinations. Apparent Ki values were calculated using the Cheng and Prusoff equation (Ki=IC50/(1+[S]/Km).
Inhibitors were pre-incubated with protease followed by the addition of the substrate. Inhibition of substrate proteolysis derived fluorescence was monitored kinetically over a period of one hour.

The target in assay [4] is T2, recombinant HGFA serine protease domain (Homo sapiens, UniProt Q04756).
T2 construct: His6 tag (N); seven amino acid spacer plus TEV cleavage site (N); made in house; host or cells: High 5 insect cells (baculovirus; Sf9 for virus production)
T2 sequence (Q04756 373-655): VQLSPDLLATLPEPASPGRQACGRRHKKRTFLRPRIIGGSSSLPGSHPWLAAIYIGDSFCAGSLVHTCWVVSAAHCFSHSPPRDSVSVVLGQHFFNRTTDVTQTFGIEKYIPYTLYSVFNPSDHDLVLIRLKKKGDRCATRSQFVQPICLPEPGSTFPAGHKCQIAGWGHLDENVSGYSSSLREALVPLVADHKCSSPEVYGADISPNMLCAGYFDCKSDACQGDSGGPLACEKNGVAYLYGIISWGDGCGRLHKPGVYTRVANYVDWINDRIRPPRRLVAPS
Briefly: Fluorescent kinetic enzyme assay of HGFA activity (Boc-QLR-AMC). The class given is biochemical. Conditions: Table 2; read-out: HGFA (IC50 nM). The gist of the method:
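His-tagged HGFA protease domain from baculovirus-infected High 5 cells, 6.25 nM in pH 8 Tris/NaCl/5 mM CaCl2/0.01% Triton X-100 with 2% DMSO. IC50 from four-parameter velocity fit (≥3 runs); apparent Ki by Cheng–Prusoff.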

For assay [5], the target named is Factor Xa (Homo sapiens, UniProt P00742). Briefly: Chromogenic kinetic enzyme assay of Factor Xa (S2222). The assay is classed as biochemical. Conditions: Table 2; chromogenic assay; read-out: Factor Xa* (IC50 nM). The method, then:
as §1, §2, §3

The target in assay [6] is T3, activated hepsin (Homo sapiens, UniProt P05981).
T3 construct: purchased R&D Systems 4776-SE-010
The assay is described as follows: Fluorescent kinetic enzyme assay of hepsin activity (Boc-QAR-AMC). The class given is biochemical.

[7] abbreviates: Table 2, read-out: Hepsin (IC50 nM).

Consider 18 molecules from patent publication US12590123B2, “Compounds and methods for treating cancer, viral infections, and allergic conditions” (Washington University, priority 2019, dated 2026).

Where two headings read alike, the source gives them in different places. Starred links: 1 amine or outer side, 2 acyl side, 3 side chain; linkers in the order of their positions; H or OH if unused. Positions of bridges follow the written chain, without caps; N, C: chain ends. Non-standard residues stand in square brackets, D forms with d. Residues, ends and D or L forms follow the SMILES beside them. X6 = N=C(N)NCCC[C@H](N[*:1])C(=O)c1nc2ccc(C(=O)[*:2])cc2s1

Chain of Factor Xa (P00742 235-488 limits assumed): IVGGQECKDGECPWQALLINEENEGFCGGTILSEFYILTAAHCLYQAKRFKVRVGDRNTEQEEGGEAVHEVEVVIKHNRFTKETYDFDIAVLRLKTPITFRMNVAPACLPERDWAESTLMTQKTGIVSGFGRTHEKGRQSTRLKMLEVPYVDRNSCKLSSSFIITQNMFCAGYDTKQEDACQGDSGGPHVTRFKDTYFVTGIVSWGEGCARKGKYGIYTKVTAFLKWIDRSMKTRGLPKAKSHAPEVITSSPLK
Chain of Factor Xa (P00742 41-179 partner limits assumed): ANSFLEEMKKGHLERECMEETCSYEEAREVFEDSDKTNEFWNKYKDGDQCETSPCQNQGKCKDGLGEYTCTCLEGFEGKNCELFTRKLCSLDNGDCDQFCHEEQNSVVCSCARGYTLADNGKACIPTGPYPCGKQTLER
T3 sequence (P05981 163-417 limits assumed): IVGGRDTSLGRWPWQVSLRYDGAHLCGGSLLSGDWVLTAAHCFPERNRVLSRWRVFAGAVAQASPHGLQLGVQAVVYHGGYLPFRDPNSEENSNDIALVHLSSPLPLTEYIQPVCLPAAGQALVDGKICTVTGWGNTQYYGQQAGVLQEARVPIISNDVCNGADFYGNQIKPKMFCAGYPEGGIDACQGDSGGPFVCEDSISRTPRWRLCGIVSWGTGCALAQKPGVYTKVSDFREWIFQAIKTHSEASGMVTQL
T3 sequence (P05981 1-162 partner limits assumed): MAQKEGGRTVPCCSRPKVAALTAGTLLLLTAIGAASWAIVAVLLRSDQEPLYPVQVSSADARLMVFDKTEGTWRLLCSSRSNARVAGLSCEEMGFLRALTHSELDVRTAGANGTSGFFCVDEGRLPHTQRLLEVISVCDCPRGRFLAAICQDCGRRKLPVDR

On to `CC(=O)N[C@@H](Cc1c[nH]c2ccccc12)C(=O)N[C@@H](CC(C)C)C(=O)N[C@@H](Cc1ccccc1)C(=O)N[C@@H](CCCNC(=N)N)C(=O)c1nc2ccccc2s1` [ZFH7064, Ac-WLFR-kbt], for which, in assay [1], the “Calu-3 EC50 (nM)” value is “excellent potency” and the EC50 came to 150 nM.
In the case of `CC(=O)N[C@H]1CC(=O)N(C)CCCC[C@@H](C(=O)N[C@@H](CCCNC(=N)N)C(=O)c2nc3ccccc3s2)NC(=O)[C@H](CC(C)C)NC1=O` [VD4192C2], the half-inhibitory concentration (IC50) in assay [2] was greater than 20000 nM; in assay [3] it was 23.5 nM; in assay [4] it was 8560 nM; in assay [5] it was 18500 nM; in assay [6] (setting [7]), 1.75 nM.
As for `CC(=O)N[C@H](Cc1c[nH]c2ccccc12)C(=O)N[C@@H](Cc1ccccc1)C(=O)N[C@@H](CCCNC(=N)N)C(=O)c1nc2ccccc2s1` [PK-1-89, Ac-dWFR-kbt], in assay [1], the EC50 worked out at 32 nM.
Take `CC(=O)N[C@H]1CCCCNC(=O)CCC(C(=O)N[C@@H](CCCNC(=N)N)C(=O)c2nc3ccccc3s2)NC(=O)[C@H](CCCNC(=N)N)NC1=O` (some centres unmarked) [VD2109B]: the IC50 in assay [2] was greater than 20000 nM; in assay [3] it was 0.07 nM; in assay [4], 2520 nM; in assay [5], 155 nM; in assay [6] (setting [7]), 0.04 nM.
For the molecule `CC(=O)N[C@H]1CC(=O)NCCCC[C@@H](C(=O)N[C@@H](CCCNC(=N)N)C(=O)c2nc3ccccc3s2)NC(=O)[C@H](CC(N)=O)NC1=O` [VD3166, (3S,6S,14S)-6-acetamido-3-(2-amino-2-oxoethyl)-N—((S)-1-(benzo[d]thiazol-2-yl)-5-guanidino-1-oxopentan-2-yl)-2,5,8-trioxo-1,4,9-triazacyclotetradecane-14-carboxamide], the 50% inhibitory concentration (IC50) in assay [2] is greater than 20000 nM; in assay [3] it was 3.8 nM; in assay [4], 15800 nM; in assay [5] it was 4650 nM; in assay [6] (setting [7]), 10.1 nM.
Take `CC(=O)N[C@H]1C/C=C\COc2ccc(cc2)C[C@@H](C(=O)N[C@@H](CCCNC(=N)N)C(=O)c2nc3ccccc3s2)NC(=O)[C@H](CC(C)C)NC1=O` [VD4051, (7S,10S,13S,E)-7-acetamido-N—((S)-1-(benzo[d]thiazol-2-yl)-5-guanidino-1-oxopentan-2-yl)-10-isobutyl-8,11-dioxo-2-oxa-9,12-diaza-1(1,4)-benzenacyclotetradecaphan-4-ene-13-carboxamide]: the EC50 in assay [1] was found to be 565 nM. Also, the IC50 is 80.2 nM in assay [3], 8810 nM in assay [5] and 102 nM in assay [6] (setting [7]).
With `CC(=O)N[C@H]1CC(=O)N(C)CCCC[C@@H](C(=O)N[C@@H](CCCNC(=N)N)C(=O)c2nc3ccccc3s2)NC(=O)[C@H](CC(C)C)NC1=O` [VD4192C1], the 50% inhibitory concentration (IC50) in assay [2] is greater than 20000 nM; in assay [3], 111 nM; in assay [4] it was 7730 nM; in assay [5], greater than 20000 nM; in assay [6] (setting [7]), 0.97 nM.
Regarding `CC(=O)N[C@H]1Cc2ccc(cc2)OCCCC[C@@H](C(=O)N[C@@H](CCCNC(=N)N)C(=O)c2nc3ccccc3s2)NC(=O)[C@@H](Cc2c[nH]c3ccccc23)NC1=O` [VD4162A], the IC50 is greater than 20000 nM in assay [2], 30.8 nM in assay [3], 52 nM in assay [4] and 7470 nM in assay [5].
Regarding `CSCC[C@@H]1NC(=O)[C@@H](NC(C)=O)CC(=O)NCCCC[C@@H](C(=O)N[C@@H](CCCNC(=N)N)C(=O)c2nc3ccccc3s2)NC1=O` [VD3173, (3S,6S,14S)-6-acetamido-N—((S)-1-(benzo[d]thiazol-2-yl)-5-guanidino-1-oxopentan-2-yl)-3-(2-(methylthio)ethyl)-2,5,8-trioxo-1,4,9-triazacyclotetradecane-14-carboxamide], the IC50 in assay [2] was greater than 20000 nM. Also, in assay [1], the “Calu-3 EC50 (nM)” value is given as “almost equivalent activity” and a half-maximal response (EC50) required 119 nM.
As for `CC(=O)N[C@H]1CC(=O)N(C)CCCC[C@@H](C(=O)N[C@@H](CCCNC(=N)N)C(=O)c2nc3ccccc3s2)NC(=O)[C@H](CC(C)C)NC1=O` [VD4192B], the IC50 in assay [2] is 17100 nM; in assay [3], 1.1 nM; in assay [4] it was 12300 nM; in assay [5] it was 678 nM; in assay [6] (setting [7]) it was 14.9 nM.
For `CC(=O)N[C@H]1CC(=O)NCCCC[C@@H](C(=O)N[C@@H](CCCNC(=N)N)C(=O)c2nc3ccccc3s2)NC(=O)[C@H]([C@H](C)O)NC1=O` [VD3157, (3S,6S,14S)-6-acetamido-N—((S)-1-(benzo[d]thiazol-2-yl)-5-guanidino-1-oxopentan-2-yl)-3-((S)-1-hydroxyethyl)-2,5,8-trioxo-1,4,9-triazacyclotetradecane-14-carboxamide] the same measures were greater than 20000 nM, 3.7 nM, 11800 nM, 13300 nM and 5.8 nM.
Take `CC(=O)N[C@H]1CC(=O)NCCCC[C@@H](C(=O)N[C@@H](CCCNC(=N)N)C(=O)c2nc3ccc(C(=O)N[C@@H](C(N)=O)C(C)C)cc3s2)NC(=O)[C@H](CC(C)C)NC1=O` [VD3056, 2-(((3S,6S,14S)-6-acetamido-3-isobutyl-2,5,8-trioxo-1,4,9-triazacyclotetradecane-14-carbonyl)-L-arginyl)-N—((R)-1-amino-3-methyl-1-oxobutan-2-yl)benzo[d]thiazole-6-carboxamide] (Ac-DLK[X6][dV]-NH2; lactam 1-3): the IC50 was determined as 33.9 nM in assay [2]; 11.2 nM in assay [3]; 5380 nM in assay [4]; 118 nM in assay [5]; 5.4 nM in assay [6] (setting [7]).
Consider `CC(=O)N[C@H]1CC(=O)NCCCC[C@@H](C(=O)N[C@@H](CCCNC(=N)N)C(=O)c2nc3ccccc3s2)NC(=O)[C@H](CCC(N)=O)NC1=O` [VD3152, (3S,6S,14S)-6-acetamido-3-(3-amino-3-oxopropyl)-N—((S)-1-(benzo[d]thiazol-2-yl)-5-guanidino-1-oxopentan-2-yl)-2,5,8-trioxo-1,4,9-triazacyclotetradecane-14-carboxamide], for which, in assay [1], the “Calu-3 EC50 (nM)” value is “almost equivalent activity” and the EC50 was found to be 138 nM.
Take `CC(=O)N[C@H]1CC(=O)NCCCC[C@@H](C(=O)N[C@@H](CCCNC(=N)N)C(=O)c2nc3ccccc3s2)NC(=O)CNC1=O` [VD3174, (6S,14S)-6-acetamido-N—((S)-1-(benzo[d]thiazol-2-yl)-5-guanidino-1-oxopentan-2-yl)-2,5,8-trioxo-1,4,9-triazacyclotetradecane-14-carboxamide]: the IC50 is greater than 20000 nM in assay [2]; 6.3 nM in assay [3]; 4310 nM in assay [4]; 6180 nM in assay [5]; 5.9 nM in assay [6] (setting [7]).
As for `CC(=O)N[C@@H](CO)C(=O)N[C@@H](CCCCN)C(=O)N[C@@H](CC(C)C)C(=O)N[C@@H](CCCNC(=N)N)C(=O)c1nc2ccc(C(=O)N[C@H](C(N)=O)C(C)C)cc2s1` [ZFH7116, Ac-SKLR kbt V-amide] (Ac-SKL[X6]V-NH2), the midpoint of the response in assay [1], the EC50, lay at 307 nM. For the same molecule, the IC50 in assay [6] (Table 6, read-out: Hepsin IC50) was 0.5 nM.
On to `CC(=O)N[C@H]1CC(=O)NCCCC[C@@H](C(=O)N[C@@H](CCCNC(=N)N)C(=O)c2nc3ccccc3s2)NC(=O)[C@H](C(C)C)NC1=O` [VD3167, (3S,6S,14S)-6-acetamido-N—((S)-1-(benzo[d]thiazol-2-yl)-5-guanidino-1-oxopentan-2-yl)-3-isopropyl-2,5,8-trioxo-1,4,9-triazacyclotetradecane-14-carboxamide], for which the IC50 is greater than 20000 nM in assay [2]; 3.2 nM in assay [3]; 1830 nM in assay [4]; 1510 nM in assay [5]; 7.8 nM in assay [6] (setting [7]).
Molecule `CC(=O)N[C@@H](CCCCN)C(=O)N[C@@H](CCC(N)=O)C(=O)N[C@@H](CC(C)C)C(=O)N[C@@H](CCCNC(=N)N)C(=O)c1nc2ccccc2s1` [ZFH7006, Ac-KQLR-kbt] returned an EC50 in assay [1] of 78 nM.
Still for that read-out and setting: to `CC(=O)N[C@@H](CC(C)C)C(=O)N[C@@H](CC(C)C)C(=O)N[C@@H](CCCNC(=N)N)C(=O)c1nccs1` [ZFH6201, Ac-LLR-kt] belongs 349 nM.

As usually defined, the EC50 is the midpoint of the concentration-response curve. A low value points to higher potency in that assay. The IC50 is the concentration at which inhibition is half-maximal.
